Laboratory results from patent publication US20070154393A1, “Bioassay for volatile low molecular weight insecticides and methods of use” (priority 2005, published 2007).
Like-named read-outs stand apart in the source and are kept apart here.

What was measured:
[1] = test system: metabolically-resistant Hikone-R strain of Drosophila (elevated cytochrome P450); format: in vivo; conditions: Hikone-R, 24 hr
Protocol: (§1) Four Drosophila strains were used, all obtained from the Bloomington Drosophila Stock Center (Indiana University; Bloomington, Ind.). The Canton-S strain was used as the insecticide-susceptible standard. […] Two resistant neurological-mutant strains were also tested. […] Flies were reared in 100-ml vials capped with acetate plugs (Fisher Scientific; Suwanee, Ga.) on a commercial diet (JAZZ-MIX; Fisher Scientific). […] Mixed-sex adults, less than 1-wk old, were used in bioassays.
(§2) All volatile insecticide stocks were prepared at 100 μg/μl in analytical grade acetone. Rather than weigh the highly volatile liquid insecticides (i.e., all compounds except benzothiophene), weight was determined based on the density-volume relationship of each compound. […] The insecticide synergists PBO (piperonyl butoxide) and DEF (SSS-tributyl-phosphoro-trithioate) were obtained from Fluka Chemical Co. (Basel, Switzerland) and Mobay Chemical Co. (Kansas City, Mo.). […] Synergist stocks were prepared at 100 μg/ml in analytical grade acetone.
(§3) Briefly, bioassays took place in 0.5-l glass jars with metal lids. Mixed-sex flies were isolated from lab colonies and placed in 4-ml dram vials in groups of ten, along with a dried piece of laboratory diet. The dram vials were capped with open-top septum caps that were covered with fine mesh (held in place by non-toxic glue). For bioassays, the assembled dram vials were placed into the 0.5-l jars along with a folded filter paper “tent” (Whatman #1; Vineland, N.J.). The filter paper was treated with either an insecticide dilution or acetone, the jar was sealed with the metal lid, and the bioassay proceeded for 24-hr at room temperature. Mortality was scored based on a complete lack of movement by the flies. Four concentrations plus an acetone control were tested for all insecticides. Between five and ten replicates were performed for each concentration range on each strain-insecticide combination. Synergist bioassays were performed with a slight modification. Synergist stocks were applied to dram vials at 100 μl per vial to provide assay concentrations of 10 μg per vial. […] After treatment, vials were held at an angle in a fume hood and rotated ¼-turn each minute until the acetone evaporated. Flies and diet were added as above and held for 1-hr. Assays were initiated, run, and scored as above.
(§4) Probit analysis was performed using PROC PROBIT in the SAS software package (SAS Institute; Cary, N.C.). If control mortality ever exceeded 10% in a given replicate, that replicate was discarded.

[2] = test system: para-ts1 (para-R) strain of Drosophila (sodium channel point mutation); format: in vivo; conditions: for Slope ± Std. Error (probit mortality line): Table 2, para-R, 24 hr
Protocol: as §1, §2, §3, §4

| Substance | Slope ± Std. Error (probit mortality line) ([1]; Table 2) | Slope ± Std. Error (probit mortality line) ([1]; Table 3, no synergist) | Slope ± Std. Error (probit mortality line) [2] | response of para-ts1 relative to Canton-S (LC50 ratio, FIG. 7B), in words ([2]; significance at p<0.05, method of Robertson and Preisler) |
| --- | --- | --- | --- | --- |
| methyl formate | 2.72 ± 0.68 | 2.72 ± 0.68 | 8.84 ± 1.46 | – |
| ethyl formate | 12.50 ± 7.10 | 12.50 ± 7.10 | 7.11 ± 1.34 | non-significant tolerance |
